Test results as given in patent publication US20140336067A1, “METHOD FOR FINDING BIOACTIVE PEPTIDES” (Nano Intelligent Biomedical Engineering Corporation Co. Ltd., priority 2011, published 2014).

Columns and labels:
[1] = Binding of synthesized peptide to heparin (solid phase method, HRP-conjugated heparin binding protein, absorbance at 405 nm); details: peptide coated on 96-well plates, sodium heparin 10 μg/100 μL, FIG. 5
Protocol: The synthesized peptide was dissolved in PBS at various concentrations and coated on the surface of 96-well Maxisorp microtiter plates (Nunc). Then, it was blocked with 1% BSA at 37° C. for 1 hour, and sodium heparin (10 μg/100 μL) was added to the peptide and reacted with the peptide at room temperature for 4 hours. The plate was washed three times with PBS, and then horseradish peroxidase (HRP)-conjugated heparin binding protein (Lifespan Technologies, Salt Lake City, Utah) diluted in PBS at a concentration of 1 μg/mL was reacted with the peptide at room temperature for 1 hour. To measure the binding of HRP-conjugated heparin binding protein to the peptide, ABTS was added to each well to develop color, and after 5 minutes, 1% SDS was added to each well to stop the reaction. Then, the absorbance of each well at 405 nm was measured. The absorbance of the peptide having the HRP-conjugated heparin binding protein bound thereto was calculated relative to 100% for the well surface coated with 1% BSA.
Binding %=(absorbance of well coated with heparin binding peptide/absorbance of well coated with BSA)×100

[2] = tested on: hMSCs (human mesenchymal stem cells); experiment: In vitro cell differentiation potential by calcium production (Alizarin red S staining); format: cell-based; details: hMSCs treated with 10 mM peptide, hard tissue forming medium, FIG. 6
Protocol: To measure the cell differentiation ability of the heparin binding peptide by calcium production, 1×10^3 hMSCs (human mesenchymal stem cells) were dispensed into each well of a well-plate, and then treated with 10 mM of each of the peptides of SEQ ID NOS: 2 and 3 synthesized in Example 2. Then, the cells were cultured in a hard tissue forming medium (MSCBM medium containing 15% FBS (fetal bovine serum), […] L-ascorbic acid, 10^−7 M dexamethasone, 1% antibiotic-antimycotic solution, and 10 mM beta-glycerol phosphate) for […]. After completion of the culture, the medium was removed, and the cells were washed twice with phosphate buffered saline (PBS). Then, the cells were fixed with 90% ethanol at 4° C. for 15 minutes and washed twice with distilled water, followed by staining with 2% Alizarin red S solution (pH 4.2; Alizarin red S powder, Junsei, JAPAN) for 5 minutes.

| ability to bind to heparin [1] | Sequence | production of calcium [2] |
| --- | --- | --- |
| high ability to bind to heparin | SQRARKKNKNCRRH (the sequence is synthesized) [SEQ ID NO: 2] | highest |
|  | SLYVDFSDVGW (the sequence is synthesized) [SEQ ID NO: 3, BMP-4 peptide selected from chymotrypsin cleavage sites] | lowest |
